Source: patent US11945833B2, “Prodrugs of L-BHDU and methods of treating viral infections” (priority 2021, dated 2024)
“Also recorded” adds a separate entry of the source. Read-outs that look alike come from different tables or passages of the source.

Legend:
[1] = test system: cell-associated VZV-ORF57-Luc; assay: Antiviral screening against cell-associated VZV-ORF57-Luc in ARPE-19 cells; type: cell-based, Varicella-zoster virus
Procedure: Cidofovir and acyclovir are positive controls. Each symbol represents the average of 6 replicate wells; the line is the best fit curve (error bars omitted for clarity).
These studies were performed in the same manner as the efficacy studies described above, except cell-associated VZV-ORF57-Luc, VZV-ORF57-ΔTK, VZV-ORF57-ΔTS and VZV-ORF57-ΔTKTS were used to infect ARPE-19 cells. As before, CDV and ACV were used as positive controls.

VZV-ORF57-Luc [2] = assay: Antiviral activity in ARPE-19 cells infected with VZV-ORF57-Luc; type: cell-based, Varicella-zoster virus; conditions: for in vitro anti-VZV activity (in words): VZV-ORF57-Luc
Procedure: To enhance the antiviral activity octadecyloxyethyl-L-BHDU (ODE-L-BHDU, 5) and hexadecyloxypropyl-L-BHDU (HDP-L-BHDU, 6), POM-L-BHDU (8), and POC-L-BDHU (14) (FIGS. 1-3, Schemes 1-3) prodrugs were synthesized with modifications to increase bioavailability and cell penetration. Their antiviral activity was evaluated in ARPE-19 cells infected with VZV-ORF57-Luc, a new reporter virus.

[3] = Tolerability and weight change in NuSkin mice; conditions: male and female mice
HSV-1 = assay: Anti-HSV-1 activity in Vero cells; type: cell-based, herpes simplex virus
Procedure: Additionally, all synthesized compounds were also tested in vitro against herpes simplex viruses (HSV-1, oral herpes) in Vero cells, FIG. 8.

VZV-ORF57-Luc [4] = assay: NuSkin mouse model of VZV replication (adult human skin xenografts), bioluminescence imaging; type: in vivo, Athymic Nude mice; conditions: for in vivo antiviral activity against VZV (in words): s.c. once daily days 3-9 post-infection, equimolar to cidofovir 10 mg/kg; for dose effective in vivo: subcutaneous (s.c.); for activity compared with cidofovir in repeated in vivo studies: subcutaneous (s.c.) as well as oral route, cidofovir 10 mg/Kg
Procedure: Mice were treated with vehicle or drugs, and virus yield was measured by bioluminescence imaging. VZV growth rate for individual mice (symbols) and the average for the group (bars) are shown in (A) and (B). […] The overall significance on day 10 post-inoculation (DPI 10) is p=0.0352 (one-way ANOVA). ** p<0.01 for OED-L-BHDU & POM-L-BHDU and (student's t test with Welch's correction). Cidofovir group (i.p.) has an average fold change of 2-5 on DPI 10. (B).

[5] = test system: human foreskin fibroblast (HFFS) cells; conditions: cited from earlier work
VZV-BAC-Luc = conditions: previous assay, HFFs infected with VZV-BAC-Luc; read-out: EC50 against VZV in HFFs; cited from earlier work
VZV [6] = conditions: cited from earlier work; for in vivo reduction in VZV growth compared to ACV and VACV: previous in vivo studies
[7] = test system: human fibroblast (HFFs) cells; type: cell-based
Procedure: The cellular toxicity of synthesized analogs was determined on low passage of human fibroblast (HFFs) cells by performing 72 h of neutral red dye uptake and MTT cell proliferation assays.

HSV-2 = assay: Anti-HSV-2 activity in Vero cells, bioluminescence imaging; type: cell-based, herpes simplex virus
Procedure: HSV-2 yield was determined by bioluminescence imaging. Each point represents the mean±standard deviation of a triplicate sample
Furthermore, antiviral activity of these analogs was tested in vitro against the HSV-2 (genital herpes) in Vero cells using acyclovir as a standard drug reference. […] All other analogs, including L-BDHU, were found ineffective against the HSV-2 (FIG. 11, Table 3). After these findings, it was determined that POM-L-BHDU […] has potential against the HSV-1 & HSV-2. Further in vivo evaluation of POM prodrug of the L-BDHU will confirm activity.

VZV [8] = assay: Topical treatment of VZV in human skin explant model; conditions: formulated in cocoa butter
Text: (§1) Each compound was formulated in Cocoa Butter and applied topically. POM was formulated in equimolar concentrations to 0.1% L-BHDU.

HSV1 = assay: Topical treatment of HSV1 in human skin explant model; conditions: formulated in cocoa butter
Text: as §1

[9] = cited from earlier work
[10] = biological target: T1, dihydropyridine dehydrogenase (Homo sapiens, UniProt Q12882); conditions: cited from earlier work
T1 sequence (Q12882 4-1025): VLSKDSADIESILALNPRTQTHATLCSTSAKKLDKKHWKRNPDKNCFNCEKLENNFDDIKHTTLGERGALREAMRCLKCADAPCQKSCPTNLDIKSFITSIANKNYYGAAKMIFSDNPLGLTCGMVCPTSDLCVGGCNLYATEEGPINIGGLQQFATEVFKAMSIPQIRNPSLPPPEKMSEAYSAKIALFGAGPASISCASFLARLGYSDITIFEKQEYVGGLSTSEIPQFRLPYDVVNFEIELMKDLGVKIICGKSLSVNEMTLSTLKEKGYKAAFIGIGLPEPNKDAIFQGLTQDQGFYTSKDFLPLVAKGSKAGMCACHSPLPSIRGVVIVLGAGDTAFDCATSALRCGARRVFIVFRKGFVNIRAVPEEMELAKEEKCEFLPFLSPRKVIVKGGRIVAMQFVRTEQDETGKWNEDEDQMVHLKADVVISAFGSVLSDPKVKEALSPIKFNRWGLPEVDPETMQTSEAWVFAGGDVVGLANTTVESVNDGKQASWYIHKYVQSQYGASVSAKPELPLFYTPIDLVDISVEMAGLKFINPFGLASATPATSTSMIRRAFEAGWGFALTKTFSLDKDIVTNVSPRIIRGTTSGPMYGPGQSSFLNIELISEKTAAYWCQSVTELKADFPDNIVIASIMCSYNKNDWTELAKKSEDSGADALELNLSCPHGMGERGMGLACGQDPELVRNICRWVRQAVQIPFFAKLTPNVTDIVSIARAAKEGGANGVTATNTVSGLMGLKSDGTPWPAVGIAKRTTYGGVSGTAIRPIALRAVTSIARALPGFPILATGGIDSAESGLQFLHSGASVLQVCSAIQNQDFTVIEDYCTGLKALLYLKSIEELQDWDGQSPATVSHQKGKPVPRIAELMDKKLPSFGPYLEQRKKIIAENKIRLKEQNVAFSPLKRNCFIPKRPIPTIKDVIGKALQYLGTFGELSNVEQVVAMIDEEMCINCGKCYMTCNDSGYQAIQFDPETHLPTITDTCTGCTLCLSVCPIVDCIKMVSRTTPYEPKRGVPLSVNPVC

[11] = read-out: EC50 against VZV-ORF57-Luc

CCCCCCCCCCCCCCCCCCOCCOP(=O)(O)OC[C@H]1OC[C@@H](n2cc(/C=C/Br)c(=O)[nH]c2=O)O1 [ODE-L-BHDU, L-BHDU-5′-[(2-octadecyloxyethyl)phosphate]]
potency against cell-associated VZV-ORF57-Luc compared to CDV or ACV [1]: less potent compared to CDV
in vitro anti-VZV activity (in words) (VZV-ORF57-Luc [2]): lower antiviral activity relative to L-BHDU
in vitro anti-VZV activity (in words) (VZV-ORF57-Luc [2]; listed as OED-L-BHDU): lower in vitro activity than the parental molecule
EC50 (VZV-ORF57-Luc [2]; [11]): 68 nM
tolerability / toxicity in mice [3]: without significant toxicity
tolerability / toxicity in mice ([3]; listed as OED-L-BHDU): well-tolerated
anti-HSV-1 activity (in words) (HSV-1): good activity
EC50 (HSV-1; read-out: EC50 against HSV-1): 757 nM
in vivo antiviral activity against VZV (in words) (VZV-ORF57-Luc [4]): better antiviral activity in comparison to L-BHDU; also recorded: most active
in vivo antiviral activity against VZV (in words) (VZV-ORF57-Luc [4]; listed as OED-L-BHDU): superior antiviral potency compared to L-BHDU; also recorded: significantly enhanced in vivo antiviral activity in comparison to L-BHDU
dose effective in vivo (VZV-ORF57-Luc [4]): around 25 mg/kg/day
activity compared with cidofovir in repeated in vivo studies (VZV-ORF57-Luc [4]): more active than the cidofovir
concentration at which cellular cytotoxicity was exhibited (Vero Cells): 20 µM

CC(C)C(N)C(=O)OCC1OCC(n2cc(/C=C/Br)c(=O)[nH]c2=O)O1 [L-valyl-L-BHDU]
CC50 [5]: 200000 nM
EC50 (VZV-BAC-Luc): 30 nM
in vivo reduction in VZV growth compared to ACV and VACV (VZV [6]): significant reduction in VZV growth

CC(C)OC(=O)OCOP(=O)(OCOC(=O)OC(C)C)OC[C@H]1OC[C@@H](n2cc(/C=C/Br)c(=O)[nH]c2=O)O1 [POC-L-BHDU, Bis (POC) prodrug L-BHDU]
CC50 [7]: > 100000 nM
effect on cellular proliferation [7]: did not affect cellular proliferation
in vitro anti-VZV activity (in words) (VZV-ORF57-Luc [2]): significant anti-VZV activity; also recorded: good antiviral efficacy
in vitro anti-VZV activity (in words) (VZV-ORF57-Luc [2]; listed as POC (14)): better in vitro and in vivo activity in comparison to L-BDHU
EC50 (VZV-ORF57-Luc [2]; [11]): 34 nM
anti-HSV-1 activity (in words) (HSV-1): good activity
EC50 (HSV-1; read-out: EC50 against HSV-1): 26 nM
in vivo antiviral activity against VZV (in words) (VZV-ORF57-Luc [4]): ineffective
in vivo antiviral activity against VZV (in words) (VZV-ORF57-Luc [4]; listed as POC (14)): better in vitro and in vivo activity in comparison to L-BDHU
CC50 (Vero Cells): > 100000 nM

CC(C)(C)C(=O)OCOP(=O)(OCOC(=O)C(C)(C)C)OC[C@H]1OC[C@@H](n2cc(/C=C/Br)c(=O)[nH]c2=O)O1 [POM-L-BHDU]
anti-HSV-2 activity (in words) (HSV-2): active
anti-HSV-2 activity (in words) (HSV-2; listed as POM-L-BDHU): significant activity
EC50 (HSV-2; read-out: EC50 against HSV-2): 1400 nM
CC50 [7]: > 100000 nM
effect on cellular proliferation [7]: did not affect cellular proliferation
in vitro anti-VZV activity (in words) (VZV-ORF57-Luc [2]): significant anti-VZV activity; also recorded: good antiviral efficacy; also recorded: enhanced antiviral potency in comparison to L-BHDU
in vitro anti-VZV activity (in words) (VZV-ORF57-Luc [2]; listed as POM (8)): better in vitro and in vivo activity in comparison to L-BDHU
tolerability / toxicity in mice [3]: without significant toxicity
tolerability / toxicity in mice ([3]; listed as POM-L-BDHU): well-tolerated
EC50 (HSV-1; read-out: EC50 against HSV-1): 28 nM
oral in vivo effectiveness in comparison to cidofovir (ip route) (VZV-ORF57-Luc [4]; oral, FIG. 6B): orally equal effective in comparison to cidofovir
in vivo antiviral activity against VZV (in words) (VZV-ORF57-Luc [4]): most active; also recorded: superior antiviral potency compared to L-BHDU; also recorded: retained its antiviral potency; also recorded: better activity compared to parental molecule
in vivo antiviral activity against VZV (in words) (VZV-ORF57-Luc [4]; listed as POM (8)): better in vitro and in vivo activity in comparison to L-BDHU
dose effective in vivo (VZV-ORF57-Luc [4]): around 25 mg/kg/day
activity compared with cidofovir in repeated in vivo studies (VZV-ORF57-Luc [4]): more active than the cidofovir
prevention of VZV spread in adult human skin (VZV [8]): highly effective
prevention of HSV1 spread in adult human skin (HSV1): highly effective
prevention of HSV1 spread in adult human skin (HSV1; listed as L-BHDU-POM): highly effective; also recorded: more effective than topical acyclovir 0.5%
CC50 (Vero Cells): > 100000 nM

CCCCCCCCCCCCCCCCOCCCOP(=O)(O)OC[C@H]1OC[C@@H](n2cc(/C=C/Br)c(=O)[nH]c2=O)O1 [HDP-L-BHDU, hexadecyloxypropyl-L-BHDU]
CC50 [7]: 10000 nM
in vitro anti-VZV activity (in words) (VZV-ORF57-Luc [2]): lower antiviral activity relative to L-BHDU; also recorded: lower in vitro activity than the parental molecule
EC50 (VZV-ORF57-Luc [2]; [11]): 900 nM

O=c1[nH]c(=O)n([C@@H]2CO[C@H](CO)O2)cc1/C=C/Br [L-BHDU]
anti-HSV-2 activity (in words) (HSV-2; listed as L-BDHU): ineffective; also recorded: inactive
levels in mouse organs [9]: reached high levels in mouse organs but not in the brain
well tolerated dose ([9]; mouse, in vivo): up to 150 mg/kg
CC50 [7]: > 100000 nM
effect on cellular proliferation [7]: did not affect cellular proliferation
EC50 (VZV-ORF57-Luc [2]; read-out: EC50 against VZV in ARPE-19s): 22 nM
EC50 (VZV-ORF57-Luc [2]; [11]): 22 nM
EC50 (VZV-BAC-Luc): 220 nM
anti-HSV-1 activity (in words) (HSV-1): good activity
EC50 (HSV-1; read-out: EC50 against HSV-1): 7 nM
in vivo antiviral activity against VZV (in words) (VZV-ORF57-Luc [4]): ineffective
inhibition of dihydropyridine dehydrogenase activity [10]: does not inhibit
prevention of VZV spread in adult human skin (VZV [8]): highly effective
prevention of HSV1 spread in adult human skin (HSV1): highly effective
CC50 (Vero Cells): > 100000 nM
dose effective in SCID-Hu mouse model of VZV replication (VZV [6]; human fetal skin): 15 mg/kg
in vivo reduction in VZV growth compared to ACV and VACV (VZV [6]): significant reduction in VZV growth

Nc1nc2c(ncn2COCCO)c(=O)[nH]1 [acyclovir, reference compound]
EC50 (HSV-1; Human alphaherpesvirus 1, read-out: EC50 against HSV-1): 73.6 nM

Nc1ccn(C[C@@H](CO)OCP(=O)(O)O)c(=O)n1 [Cidofovir, cidofovir, reference compound]
average fold change on DPI 10 (VZV-ORF57-Luc [4]; i.p., day 10 post-inoculation): 2-5 fold
